Test results reported in patent US4060682A, “Process for the synthetic production of 3-deoxy derivative of an aminoglycosidic antibiotic” (priority 1974, dated 1977).
In brackets after ≈: the same amount, converted by molar mass.

Columns and labels:
Assay in all cases: Minimum inhibitory concentration, standard serial dilution method, nutrient agar
Assay type in all cases: cell-based
[1] = tested on: Escherichia coli K12 JR66/W677; settings: K12JR66/W677, 18 h, read-out: Minimum Inhibitory Concentration
Description: (§1) 3'-Deoxyneamine, 3'-deoxy-6'-N-methylneamine, 3'-deoxyribostamycin, 3'-deoxy-6'-N-methylribostamycin, 3'-deoxykanamycin B, 3'-deoxy-6'-N-methylkanamycin B and 3'-deoxyparomamine which are produced by the process of this invention have been confirmed to be identical to their authentic samples, respectively, by making comparison between their n.m.r. spectra (in D2 O), mass spectra of their derivatives, thin layer chromatography on silica gel (developed with 4:5:2:5 n-butanolethanol-chloroform-17% aqueous ammonia) and antibacterial spectra. […] These 3'-deoxy derivatives are of low toxicity similarly to their parent substances and are useful for the therapeutic treatment of infections by gram-positive and gram-negative bacteria. 3'-Deoxyparomamine is useful as an intermediate for synthesis of any valuable derivative of aminoglycosidic antibiotics. The minimum inhibitory concentrations (mcg/ml) of these 3'-deoxy derivatives against various microorganisms were determined according to a standard serial dilution method using nutrient agar incubation medium at 37° C, the estimation being effected after 18 hours incubation.

[2] = tested on: Escherichia coli K12 LA290 R55; settings: K12LA290R55, 18 h, read-out: Minimum Inhibitory Concentration
Description: as §1

[3] = tested on: Escherichia coli K12 ML1410; settings: K12ML1410, 18 h, read-out: Minimum Inhibitory Concentration
Description: as §1

[4] = tested on: Escherichia coli K12 ML1629; settings: K12ML1629, 18 h, read-out: Minimum Inhibitory Concentration
Description: as §1

[5] = tested on: Escherichia coli K12 W677; settings: K12W677, 37° C, 18 hours
Description: as §1

[6] = tested on: Escherichia coli K12; settings: K12, 18 h, read-out: Minimum Inhibitory Concentration
Description: as §1

[7] = tested on: Pseudomonas aeruginosa A3; settings: A3, 18 h, read-out: Minimum Inhibitory Concentration
Description: as §1

[8] = tested on: Pseudomonas aeruginosa GN315; settings: GN315, 18 h, read-out: Minimum Inhibitory Concentration
Description: as §1

[9] = tested on: Pseudomonas aeruginosa No.12; settings: NO.12, 18 h, read-out: Minimum Inhibitory Concentration
Description: as §1

[10] = tested on: Staphylococcus aureus FDA 209P; settings: FDA209P, 18 h, read-out: Minimum Inhibitory Concentration
Description: as §1

Structure (SMILES)	MIC [1]	MIC [2]	MIC [3]	MIC [4]	MIC [5]	MIC [6]	MIC [7]	MIC [8]	MIC [9]	MIC [10]
CNC[C@H]1O[C@H](O[C@H]2[C@H](O)[C@@H](O[C@H]3O[C@H](CO)[C@@H](O)[C@H](N)[C@H]3O)[C@H](N)C[C@@H]2N)[C@H](N)C[C@@H]1O [3'-Deoxy-6'-N-methylkanamycin B, 3'-deoxy-6'-N-methylkanamycin B]	50 µg/mL (≈ 104 µM)	50 µg/mL (≈ 104 µM)	1.56 µg/mL (≈ 3.24 µM)	1.56 µg/mL (≈ 3.24 µM)	1.56 µg/mL (≈ 3.24 µM)	0.78 µg/mL (≈ 1.62 µM)	0.78 µg/mL (≈ 1.62 µM)	6.25 µg/mL (≈ 13 µM)	0.78 µg/mL (≈ 1.62 µM)	1.56 µg/mL (≈ 3.24 µM)
NC[C@H]1O[C@H](O[C@H]2[C@H](O)[C@@H](O[C@H]3O[C@H](CO)[C@@H](O)[C@H](N)[C@H]3O)[C@H](N)C[C@@H]2N)[C@H](N)C[C@@H]1O [3'-Deoxykanamycin B, 3'-deoxykanamycin B]	50 µg/mL (≈ 107 µM)	50 µg/mL (≈ 107 µM)	0.78 µg/mL (≈ 1.67 µM)	0.78 µg/mL (≈ 1.67 µM)	1.56 µg/mL (≈ 3.34 µM)	0.78 µg/mL (≈ 1.67 µM)	0.78 µg/mL (≈ 1.67 µM)	100 µg/mL (≈ 214 µM)	0.78 µg/mL (≈ 1.67 µM)	0.78 µg/mL (≈ 1.67 µM)
NC[C@H]1O[C@H](O[C@H]2[C@H](O)[C@@H](O)[C@H](N)C[C@@H]2N)[C@H](N)C[C@@H]1O [3'-Deoxyneamine, 3'-deoxyneamine]	> 100 µg/mL	100 µg/mL (≈ 326 µM)	6.25 µg/mL (≈ 20.4 µM)	6.25 µg/mL (≈ 20.4 µM)	6.25 µg/mL (≈ 20.4 µM)	6.25 µg/mL (≈ 20.4 µM)	6.25 µg/mL (≈ 20.4 µM)	> 100 µg/mL	6.25 µg/mL (≈ 20.4 µM)	3.12 µg/mL (≈ 10.2 µM)
N[C@@H]1C[C@H](O)[C@@H](CO)O[C@@H]1O[C@H]1[C@H](O)[C@@H](O)[C@H](N)C[C@@H]1N [3'-Deoxyparomamine, 3'-deoxyparomamine]	> 100 µg/mL	50 µg/mL (≈ 163 µM)	> 100 µg/mL	100 µg/mL (≈ 325 µM)	> 100 µg/mL	100 µg/mL (≈ 325 µM)	> 100 µg/mL	> 100 µg/mL	> 100 µg/mL	50 µg/mL (≈ 163 µM)
NC[C@H]1O[C@H](O[C@H]2[C@H](O[C@@H]3O[C@H](CO)[C@@H](O)[C@H]3O)[C@@H](O)[C@H](N)C[C@@H]2N)[C@H](N)C[C@@H]1O [3'-Deoxyribostamycin, 3'-deoxyribostamycin]	> 100 µg/mL	> 100 µg/mL	6.25 µg/mL (≈ 14.3 µM)	> 100 µg/mL	3.12 µg/mL (≈ 7.12 µM)	6.25 µg/mL (≈ 14.3 µM)	3.12 µg/mL (≈ 7.12 µM)	> 100 µg/mL	3.12 µg/mL (≈ 7.12 µM)	6.25 µg/mL (≈ 14.3 µM)
